The source of these data is publication PMC1851987, “Identification of the Endogenous Key Substrates of the Human Organic Cation Transporter OCT2 and Their Implication in Function of Dopaminergic Neurons” (PLoS ONE, 2007).

For data set [1], the target named is T1, organic cation transporter OCT2 (wild-type 400R) (Homo sapiens, UniProt O15244, S270A).
T1 sequence (O15244 1-555 S270A): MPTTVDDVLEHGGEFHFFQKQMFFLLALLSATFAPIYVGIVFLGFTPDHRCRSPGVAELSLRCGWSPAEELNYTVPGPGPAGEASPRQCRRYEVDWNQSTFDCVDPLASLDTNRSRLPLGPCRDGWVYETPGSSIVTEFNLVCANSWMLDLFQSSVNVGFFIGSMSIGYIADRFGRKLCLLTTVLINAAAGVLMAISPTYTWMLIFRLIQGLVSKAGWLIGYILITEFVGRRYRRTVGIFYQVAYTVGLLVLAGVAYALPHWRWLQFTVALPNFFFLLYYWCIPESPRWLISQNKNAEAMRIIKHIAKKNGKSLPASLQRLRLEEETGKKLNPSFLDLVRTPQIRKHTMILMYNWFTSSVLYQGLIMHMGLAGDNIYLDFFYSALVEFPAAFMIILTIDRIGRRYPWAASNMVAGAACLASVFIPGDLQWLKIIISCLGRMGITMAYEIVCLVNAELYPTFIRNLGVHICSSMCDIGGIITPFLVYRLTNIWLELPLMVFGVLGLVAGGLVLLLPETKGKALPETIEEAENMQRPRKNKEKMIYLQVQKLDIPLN
Particulars: cited from earlier work.

Substrate in data set [2]: O=C1NC(Cc2c[nH]cn2)C(=O)N2CCCC12
The data set can be described thus: Specific uptake into EMT-transfected HEK-293 cells. Type of data set: cell-based, human. Particulars: other: specific uptake, 1 min of loading, mean (s.e.m.); pH 7.4; 37.0 °C.

Consider `NCCc1ccc(O)c(O)c1` [dopamine], for which, in data set [1], the OCT2-mediated transport result is “no significant OCT2-mediated transport”.

B1: EMT (Homo sapiens) (protein)
chain: MPSFDEALQRVGEFGRFQRRVFLLLCLTGVTFAFLFVGVVFLGTQPDHYWCRGPSAAALAERCGWSPEEEWNRTAPASRGPEPPERRGRCQRYLLEAANDSASATSALSCADPLAAFPNRSAPLVPCRGGWRYAQAHSTIVSEFDLVCVNAWMLDLTQAILNLGFLTGAFTLGYAADRYGRIVIYLLSCLGVGVTGVVVAFAPNFPVFVIFRFLQGVFGKGTWMTCYVIVTEIVGSKQRRIVGIVIQMFFTLGIIILPGIAYFIPNWQGIQLAITLPSFLFLLYYWVVPESPRWLITRKKGDKALQILRRIAKCNGKYLSSNYSEITVTDEEVSNPSFLDLVRTPQMRKCTLILMFAWFTSAVVYQGLVMRLGIIGGNLYIDFFISGVVELPGALLILLTIERLGRRLPFAASNIVAGVACLVTAFLPEGIAWLRTTVATLGRLGITMAFEIVYLVNSELYPTTLRNFGVSLCSGLCDFGGIIAPFLLFRLAAVWLELPLIIFGILASICGGLVMLLPETKGIALPETVDDVEKLGSPHSCKCGRNKKTPVSRSHL
notes: The cDNAs encoding the organic cation transporters; expressed in transfected cells; host or cells: HEK-293, stably transfected, pcDNA3
For B1, the Km in data set [2] is recorded as 126 (38) μmol/l.
